“Also recorded” adds a separate entry of the source. Like-named read-outs stand apart in the source and are kept apart here.
What was measured:
MBNL1/(CUG)4 complex = target: T1, MBNL1/(CUG)4 complex (Homo sapiens, UniProt Q9NR56); assay: competitive EMSA (gel shift assay), disruption of the MBNL1/(CUG)4 complex; format: binding
T1 construct: The MBNL1 medium construct (1-260) was purified as previously described; made in house
T1 sequence (Q9NR56 1-260): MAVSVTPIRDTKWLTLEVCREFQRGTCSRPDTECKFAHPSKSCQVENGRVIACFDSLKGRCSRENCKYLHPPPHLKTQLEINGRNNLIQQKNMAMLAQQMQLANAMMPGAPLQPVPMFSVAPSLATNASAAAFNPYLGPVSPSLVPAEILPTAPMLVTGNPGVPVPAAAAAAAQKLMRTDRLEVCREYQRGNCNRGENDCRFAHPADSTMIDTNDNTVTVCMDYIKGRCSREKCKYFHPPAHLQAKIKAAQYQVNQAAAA

[1] = system: TNNT2 minigene exon 5 splicing in HeLa cells expressing 960 CUG repeats; assay: TNNT2 minigene splicing rescue in HeLa cell DM1 model; format: cell-based; details: for rescue of TNNT2 exon 5 mis-splicing: propamidine up to 130 μM; for EC50: read-out: concentration needed to observe 50% rescue (EC50) of TNNT2 mis-splicing, exon 5 inclusion, 16-18 hours
[2] = system: INSR minigene exon 11 splicing in HeLa cells expressing 960 CUG repeats; assay: INSR minigene splicing rescue in HeLa cell DM1 model; format: cell-based; details: for EC50: HeLa cell DM1 model, exon 11 inclusion, 16-18 hours, read-out: EC50 for rescue of INSR mis-splicing
Clcn1 exon 7a = Clcn1 exon 7a splicing in vastus muscle of HSALR DM1 mice; format: in vivo
Procedure: (§1) Homozygous HSALR transgenic mice in line 20b (FVB inbred background) were previously described (Mankodi et al., Science 289″1769-1773, 2000). Gender-matched mice of 10-14 weeks of age were treated with heptamidine at the indicated dose by daily intraperitoneal injection for 7 days. Control mice received 5% glucose injections. Mice were sacrificed 1 d after the final injection and vastus (quadriceps) muscle was obtained for splicing analysis. Mice in the withdrawal (WD) group were treated with 30 mg/kg heptamidine for 7 days and then left untreated for 10 days before sacrifice. […] RNA was isolated, reverse transcribed, and amplified by PCR, and analyzed on agarose gels using a fluorimager as previously described (Warf et al., Proc. Natl. Acad. Sci. USA 106:18551-18556, 2009).
The HSA^LR DM1 mouse model expresses 220 CUG repeats under the skeletal promoter (Mankodi et al., Science 289″1769-1773, 2000). […] Wild type adult mice include exon 7a of the Clcn1 pre-mRNA at a level of 4±1% while HSA^LR mice include exon 7a at steady state levels of 47±1% (FIG. 3, note that exon 7a inclusion isoforms are subject to nonsense mediated decay).

Atp2a1 exon 22 = Atp2a1 exon 22 splicing in vastus muscle of HSALR DM1 mice; format: in vivo
Procedure: as §1
The MBNL regulated exon of Atp2a1 (exon 22) is included in the presence of MBNL proteins (positively regulated). Wild type adult mice included this exon 100±1% of the time (FIG. 4). When MBNL proteins are sequestered by the 220 CUG repeats present in HSALR mice, exon 22 inclusion drops to 23±3%. […] Additionally, after being treated with 30 mg/kg heptamidine for 7 d, mice went untreated for 10 days, and splicing of Clcn1 and Atp2a1 was examined. […] The severity of myotonia was graded by insertion of extracellular recording electrodes into muscle tissue (electromyography) under general anesthesia.

HSALR mice = assay: electromyography, myotonia grade in vastus muscle of HSALR mice; format: in vivo; details: 20 or 30 mg/kg for 7 days, controls grade 3
Procedure: as §1
Electromyography was performed under general anesthesia as described previously (Kanadia, Science 302:1978-1980, 2003). Briefly, at least 10 needle insertions were performed in vastus muscle and myotonic discharges were graded on a four point scale: 0, no myotonia; 1, occasional myotonic discharge in less than 50% of needle insertions; 2, myotonic discharge with more than 50% of insertions; and 3, myotonic discharge with nearly all insertions.

water solubility = format: physicochemical
[3] = target: T2, MBNL1 (residues 1-260, medium construct) (UniProt Q9NR56 Q9NR56:1-260); assay: EMSA; 250 nM MBNL1, 0.5 nM RNA, 175 mM NaCl, 5 mM MgCl2, 20 mM Tris pH 7.5, heparin 0.1 mg/mL, RT; complex disrupted by diamidines (pentamidine IC50 39 uM, small-molecule competition); details: label: 5'-32P; hairpin with UUCG cap
T2 sequence: T1 sequence (Q9NR56 1-260)
Procedure: The 5′ end labeled (CUG)₄ RNA was heated at 95° C. for 3 minutes in 250 mM NaCl, 25 mM MgCl₂, and 75 mM Tris pH 7.5 by heating at 95° C. for 3 minutes. The reaction was cooled on ice for 5 minutes, BSA and heparin were added, and the reaction cooled another 5 minutes. MBNL1 was then added to the RNA and incubated at room temperature (RT) for 10 minutes. Amidine derivative was added, followed by another 5 minute RT incubation, followed by the addition of bromophenol blue. The final reaction volume of 10 μL was incubated at RT for 25 minutes. Final reaction conditions were 0.5 nM (CUG)₄, 175 mM NaCl, 20 mM Tris pH 7.5, 5 mM MgCl₂, 2 mg/mL BSA, 0.1 mg/mL heparin, 1.25 mM β-mercaptoethanol, 1.25% (v/v) glycerol, 250 μM bromophenol blue, and 250 nM MBNL. Bromophenol blue was added at 250 μM since the activity of pentamidine is dependent upon bromophenol blue in vitro. […] IC₅₀ values were calculated as previously described (Warf et al., Proc. Natl. Acad. Sci. USA 106:18551-18556, 2009). In brief, gels were quantified using ImageQuant™ software (Molecular Dynamics/GE Healthcare, Piscataway, N.J.). The percent of RNA bound was determined by taking the ratio of the RNA:protein complex (including any well shifting) to the total RNA, per lane. IC₅₀ values were determined with KaleidaGraph (Synergy, Reading, Pa.) software using the equation: […]

[4] = competitive EMSA, 250 nM MBNL, 0.5 nM (CUG)4, 250 μM bromophenol blue, ± standard deviation of triplicate, read-out: IC50 of diamidine analogs
[5] = 30 mg/kg for 7 days, then 10 days untreated
[6] = HSALR mice, daily intraperitoneal for 7 days
[7] = competitive EMSA as in Example 1, Table 2, read-out: IC50 of diamidine derivatives

N=C(N)c1ccc(OCCCCOc2ccc(C(=N)N)cc2)cc1 [Butamidine]
IC50 (MBNL1/(CUG)4 complex; [4]): 85 ± 17 µM
rescue of TNNT2 exon 5 mis-splicing [1]: lowered exon 5 inclusion levels below that of wild type
EC50 [1]: 23 ± 5 µM
EC50 [2]: 34 ± 7 µM

N=C(N)c1ccc(OCCCCCCCOc2ccc(C(=N)N)cc2)cc1 [Heptamidine]
IC50 (MBNL1/(CUG)4 complex; [4]): 20 ± 2 µM
EC50 ([1]; Homo sapiens): 15 ± 6 µM
EC50 ([2]; Homo sapiens): 9 ± 1 µM
Clcn1 splicing after withdrawal (Clcn1 exon 7a; [5]): exon inclusion levels returned to control HSALA levels; also recorded: complete return to disease state splicing levels
Clcn1 exon 7a inclusion (Clcn1 exon 7a; HSALR mice, 20 mg/kg daily intraperitoneal for 7 days, wild type 4±1%, HSALR 47±1%): 6±1%
rescue of Clcn1 exon 7a mis-splicing (Clcn1 exon 7a; [6]): dose-dependent reduction of exon 7a inclusion; also recorded: Complete rescue
Atp2a1 splicing after withdrawal (Atp2a1 exon 22; [5]): exon inclusion levels returned to control HSALA levels; also recorded: complete return to disease state splicing levels
rescue of Atp2a1 exon 22 missplicing (Atp2a1 exon 22; HSALR mice, 30 mg/kg): about 50%
Atp2a1 exon 22 inclusion (Atp2a1 exon 22; HSALR mice, 30 mg/kg/day for 7 days, wild type 100±1%, HSALR 23±3%): 62±4%
rescue of Atp2a1 exon 22 mis-splicing (Atp2a1 exon 22; [6]): full rescue with heptamidine could not be reached; also recorded: Partial rescue of missplicing
myotonia grade (electromyography) (HSALR mice): grade 1 (occasional myotonic discharge) or grade 0; also recorded: occasional myotonic discharges with less than 50% of insertions (grade 1) or no myotonia (grade 0)
water solubility (water solubility): retaining water solubility

N=C(N)c1ccc(OCCCCCCOc2ccc(C(=N)N)cc2)cc1 [Hexamidine]
IC50 (MBNL1/(CUG)4 complex; [4]): 26 ± 2 µM
EC50 ([1]; Homo sapiens): 12 ± 3 µM
EC50 ([2]; Homo sapiens): 15 ± 1 µM
cell toxicity (HeLa cells): low toxicity

N=C(N)c1ccc(OCCCCCCCCCOc2ccc(C(=N)N)cc2)cc1 [Nonamidine]
IC50 (MBNL1/(CUG)4 complex; [4]): 14 ± 1 µM
rescue of TNNT2 exon 5 mis-splicing [1]: unable to rescue splicing defects before causing significant cell death
EC50 [2]: 6 ± 1 µM
concentration that is toxic / causes significant cell death (HeLa cells; HeLa cells, TNNT2 splicing assay): 4 µM

N=C(N)c1ccc(OCCCCCCCCOc2ccc(C(=N)N)cc2)cc1 [Octamidine]
IC50 (MBNL1/(CUG)4 complex; [4]): 20 ± 1 µM
rescue of TNNT2 exon 5 mis-splicing [1]: slight rescue of TNNT2 mis-splicing
EC50 [2]: 7 ± 1 µM
cell toxicity (HeLa cells): toxicity issues

N=C(N)c1ccc(OCCCCCOc2ccc(C(=N)N)cc2)cc1 [Pentamidine, reference compound]
IC50 (MBNL1/(CUG)4 complex; [4]): 39 ± 2 µM
EC50 ([1]; Homo sapiens): 20 ± 4 µM
rescue of TNNT2 exon 5 mis-splicing [1]: lowered exon 5 inclusion levels below that of wild type
EC50 ([2]; Homo sapiens): 31 ± 2 µM

N=C(N)c1ccc(OCCCOc2ccc(C(=N)N)cc2)cc1 [Propamidine]
IC50 (MBNL1/(CUG)4 complex; [4]): 250 ± 10 µM
rescue of TNNT2 exon 5 mis-splicing [1]: did not have the desired effect on TNNT2 mis-splicing
EC50 ([2]; Homo sapiens): 64 ± 10 µM
concentration that is toxic / causes significant cell death (HeLa cells; human): > 130 µM

CC(=O)ON=C(N)c1ccc(OCCCCCCCOc2ccc(C(N)=NOC(C)=O)cc2)cc1 [acetoxy-amdine derivative of heptamidine]
cell toxicity of prodrugs relative to parent amidine (HeLa cells): less toxic than heptamidine

CC(=O)ONC(=N)c1ccc(OCCCCCOc2ccc(C(=N)NOC(C)=O)cc2)cc1 [compound 128, 1,5-bis(4-acetoxyamidinophenoxy)pentane (diacetyldiamidoximeester)]
activity of pentamidine prodrugs in the INSR splicing assay ([2]; HeLa cell splicing assay, FIG. 6): showed activity in the splicing assay
cell toxicity of prodrugs relative to parent amidine (HeLa cells): less toxic than pentamidine

N=C(N)c1ccc(OCCCOc2ccccc2)cc1 [drawing 8 n=3]
IC50 (MBNL1/(CUG)4 complex; [7]): 281 µM

N=C(N)c1ccc(OCCCCOc2ccccc2)cc1 [drawing 8 n=4]
IC50 (MBNL1/(CUG)4 complex; [7]): 209 µM

N=C(N)c1ccc(OCCCCCOc2ccccc2)cc1 [drawing 8 n=5]
IC50 (MBNL1/(CUG)4 complex; [7]): 199 µM

N=C(N)c1ccc(OCCCCCCOc2ccccc2)cc1 [drawing 8 n=6]
IC50 (MBNL1/(CUG)4 complex; [7]): 236 µM

N=C(N)c1ccc(OCCCCCCCOc2ccccc2)cc1 [drawing 8 n=7]
IC50 (MBNL1/(CUG)4 complex; [7]): 253 µM

N=C(N)c1ccc(OCCc2ccccc2)cc1 [drawing 9 n=2]
IC50 (MBNL1/(CUG)4 complex; [7]): 414 µM

N=C(N)c1ccc(OCCCc2ccccc2)cc1 [drawing 9 n=3]
IC50 (MBNL1/(CUG)4 complex; [7]): 169 µM

N=C(N)c1ccc(OCCCCc2ccccc2)cc1 [drawing 9 n=4]
IC50 (MBNL1/(CUG)4 complex; [7]): 212 µM

GCUGCUGUUCGCUGCUG (ssRNA) [(CUG)4 hairpin RNA]
binding result [3]: binds

Reference: patent US20130281462A1, “ARYL DIAMIDINES AND PRODRUGS THEREOF FOR TREATING MYOTONIC DYSTROPHY” (University of Oregon, priority 2012, published 2013)
